Experimental data: article PMC13369845 (Oncogenesis, 2026)
Where no end group is shown, it is not given here.

How the values were obtained:
[1] = test system: Vemurafenib-resistant A375 cells; experiment: Cell viability (CCK-8) of Vemurafenib-resistant A375 cells; assay type: cell-based, human
Description: Viability was determined using the CCK-8 reagent (APExBIO-K1018). Absorbance was measured at 450 nm using a Varioskan LUX reader.
Vemurafenib-resistant A375 cells were generated following established protocol. Parental cells were treated with 100 nM Vemurafenib (SelleckChem #S1267) for 2 weeks, followed by stepwise doubling of drug concentration every 2 weeks up to 3.2 µM. Surviving cells in maintenance culture containing 2 µM drug were used for downstream studies.

[2] = In vivo plasma pharmacokinetics; set-up: species or system mouse (C57BL/6); details: male C57BL/6 mouse, 5 mg/kg intraperitoneal, LC-MS/MS
Description: Blood samples (100 µl) were obtained at 0, 0.25, 0.5, 1, 2, 4, 8, and 24 h via tail vein bleeds.

[3] = In vitro plasma stability; assay type: in vitro ADME, mouse (C57BL/6); details: LC-MS/MS
Description: Each aliquot (50 µl) was mixed with 150 µl methanol, vortexed, spun, removed the supernatant and reconstituted the pellet with 150 µl 10% formic acid in water. The sample was vortexed and spun, and a 100 µl aliquot was taken, diluted 1:1 with 10 mM ammonium bicarbonate, and analyzed by LC-MS/MS. Using the remaining vs. time dataset, we performed a first-order decay analysis by fitting a linear regression to the natural log-transformed percent remaining values (excluding 0% and t = 0 anchor point) to plot the graph.

[4] = test system: B16F10-derived tumors in C57BL/6 mice; experiment: B16F10 melanoma mouse tumor model; assay type: in vivo; details: CST 10 mg/kg intraperitoneally, three times per week
Description: Age-matched male and female C57BL/6 mice (7–9 weeks, n = 9) were subcutaneously injected with 5 × 10⁴ B16-F10 cells in 100 µL PBS. […] Tumor dimensions were measured with calipers, and volume was calculated using the formula V = (length × width²)/2. Mice were euthanized 22 days post-inoculation by inhalational isoflurane, that follow the institutional IACUC protocol and AVMA guideline for Euthanasia of animals (2020). […] Animals were continuously monitored till the loss of righting reflex and response to toe pinch was absent, thus confirming a surgical plane of anesthesia. Tissues were collected when the animals went into deep anesthesia and euthanasia was finally completely by exsanguination. […]
Fixed tumors were paraffin-embedded and sectioned (5 µm). […] The area fraction was calculated as the percentage of pixels that exceeded the threshold within the defined region of interest (ROI). Quantification was performed using Fiji (ImageJ), which computes the area fraction as the ratio of the threshold-positive area to the total ROI area, expressed as a percentage.
Apoptotic nuclei were detected in tumor sections using the CF®594 TUNEL Assay Kit (Biotium #30064). […] Fluorescence images were obtained using a Keyence microscope.
For tissue lysates from wild-type and CST-knockout (CST-KO) mice, 10 µg of total protein was analyzed by immunoblotting using an anti-CST antibody. […]

| Cmax ([2]; ip, plasma from tail vein bleeds 0-24 h, read-out: Cmax (maximum concentration)) | Tmax (time to reach Cmax) ([2]; plasma) | t1/2 (half-life) in vivo ([2]; plasma) | intact material remaining ([3]; in vitro mouse plasma, 5 µg CST/ml, at ~5.6 h) | apparent first-order rate constant k ([3]; in vitro, C57BL/6 mouse plasma spiked with 5 µg CST/ml, aliquots over 24 h, linear regression of ln(% remaining) vs time, R^2 = 0.971) | Molecule | cell viability of A375 resistant cells, single agents and combination ([1]; Vemurafenib 2 µM, CST 2 µM, alone or combined, after 48 h) | IC50 of resistant cells relative to parental cells ([1]; Vemurafenib-resistant vs parental A375) | body weight and liver histology [4] |
| --- | --- | --- | --- | --- | --- | --- | --- | --- |
| – | – | – | – | – | CCCS(=O)(=O)Nc1ccc(F)c(C(=O)c2c[nH]c3ncc(-c4ccc(Cl)cc4)cc23)c1F [Vemurafenib] | little effect on cell viability | > 6 fold | – |
| 160 ng/mL | 15 min | 1.49 h | ~ 50% | 0.1246 h⁻¹ | SSMKLSFRARAYGFRGPGPQL [CST, Catestatin] | – | – | No major changes in body weight or liver histology |
